Reference: the supplement of paper PMC13380429

Key:
Settings in all cases: 72 h
Caco-2 [1] = assay: relative viability EC50 (midpoint between 100% and the lowest measured viability); higher = less toxic
U2OS [2] = assay: as above
Vero E6 [3] = assay: as above
HepG2 [4] = assay: as above
Calu-3 [5] = assay: as above
Caco-2 [6] = assay: drug sensitivity score (DSS) for viability; higher = more toxic; extreme values may be limits of the assay
U2OS [7] = assay: as above
Vero E6 [8] = assay: as above
HepG2 [9] = assay: as above
Calu-3 [10] = assay: as above
Caco-2 [11] = assay: cell viability relative to DMSO; higher = less toxic
U2OS [12] = assay: as above
Vero E6 [13] = assay: as above
HepG2 [14] = assay: as above
Calu-3 [15] = assay: as above

Compound	relative viability EC50 (Caco-2 [1]) [µM]	relative viability EC50 (U2OS [2]) [µM]	relative viability EC50 (Vero E6 [3]) [µM]	relative viability EC50 (HepG2 [4]) [µM]	relative viability EC50 (Calu-3 [5]) [µM]	drug sensitivity score (Caco-2 [6])	drug sensitivity score (U2OS [7])	drug sensitivity score (Vero E6 [8])	drug sensitivity score (HepG2 [9])	drug sensitivity score (Calu-3 [10])	cell viability (Caco-2 [11]; 1 nM) [%]	cell viability (Caco-2 [11]; 10 nM) [%]	cell viability (Caco-2 [11]; 100 nM) [%]	cell viability (Caco-2 [11]; 1000 nM) [%]	cell viability (Caco-2 [11]; 10000 nM) [%]	cell viability (U2OS [12]; 1 nM) [%]	cell viability (U2OS [12]; 10 nM) [%]	cell viability (U2OS [12]; 100 nM) [%]	cell viability (U2OS [12]; 1000 nM) [%]	cell viability (U2OS [12]; 10000 nM) [%]	cell viability (Vero E6 [13]; 1 nM) [%]	cell viability (Vero E6 [13]; 10 nM) [%]	cell viability (Vero E6 [13]; 100 nM) [%]	cell viability (Vero E6 [13]; 1000 nM) [%]	cell viability (Vero E6 [13]; 10000 nM) [%]	cell viability (HepG2 [14]; 1 nM) [%]	cell viability (HepG2 [14]; 10 nM) [%]	cell viability (HepG2 [14]; 100 nM) [%]	cell viability (HepG2 [14]; 1000 nM) [%]	cell viability (HepG2 [14]; 10000 nM) [%]	cell viability (Calu-3 [15]; 1 nM) [%]	cell viability (Calu-3 [15]; 10 nM) [%]	cell viability (Calu-3 [15]; 100 nM) [%]	cell viability (Calu-3 [15]; 1000 nM) [%]	cell viability (Calu-3 [15]; 10000 nM) [%]
NC(Cc1ccc(I)cc1)C(=O)O (stereo in doubt) [4-iodo-L-phenylalanine]	> 10	> 10	> 10	> 10	> 10	0	0	0	0	0	102	97.4	98.2	97.3	106	102	97.8	98.8	102	97.6	96.7	99.2	97.4	94.4	103	96.3	101	82.5	104	109	103	101	106	108	95.2
Cc1cc(C)cc(OCC2CNC(=O)O2)c1 (stereo not given) [metaxalone]	> 10	> 10	> 10	> 10	> 10	0	0	0	0	0	100	101	99.9	103	105	97.4	96.8	97.1	99.2	98.8	101	103	102	105	97.7	92.1	99.7	87	93.2	101	95.6	102	103	100	95.4
CCCCCCCCCCCC[N+](C)(C)CCOc1ccccc1 [domiphen]	3.22	2.8	> 10	2.46	3.31	4.9	5.6	0.5	4.8	3.9	85.6	99.3	95	101	11.1	93.6	102	94.9	95.7	9.5	100	98.8	96.6	93	83.8	103	95.3	100	94	30	90.9	92.7	91.5	102	26.8
Cc1cc(C#N)cc(C)c1Oc1nc(Nc2ccc(C#N)cc2)nc(N)c1Br [etravirine]	> 10	> 10	> 10	> 10	> 10	0	0	0	0	0	94	93.7	97.2	105	102	103	95.2	97.2	95.2	95.3	97.5	97.9	95.7	105	107	110	101	92.3	99.8	102	94.3	95.8	95.7	96.5	103
O=C(NCCN1CCC(n2c(=O)[nH]c3ccccc32)CC1)c1cc2cc(F)ccc2[nH]1 [FIPI]	> 10	> 10	> 10	> 10	> 10	0	0	0	0	0	95.7	101	100	101	106	97	94	100	97.4	94.8	95	95.9	99	96.6	103	90.7	110	98.2	93.7	91.1	92.2	101	99.8	98	96.8
C[C@H](Nc1cc(-c2cnn(C)c2)cc(Nc2cnccn2)n1)c1ccc(F)cc1 [NS-018]	1.58	1.88	1.76	1.54	0.517	6.3	6.1	7.4	9.1	8.1	99.1	102	104	83.6	32	97.6	95.1	100	87.6	26.4	106	100	99.7	83.4	14.5	101	102	102	75.6	3.1	96.4	89.1	91.9	62.7	42
[NH-]c1c[n+](N2CCOCC2)no1 [linsidomine]	> 10	> 10	> 10	> 10	> 10	0	0	0	0	0	102	96.1	95.8	96.1	89.4	105	98.8	100	96.3	101	98.9	99.3	95.6	100	91.1	96.9	106	97.7	96.8	104	100	96	105	94.3	116
C[C@@H](CN1CC(=O)NC(=O)C1)N1CC(=O)NC(=O)C1 [dexrazoxane]	> 10	> 10	> 10	> 10	> 10	0	0	0	0	0	89.3	103	90.4	105	90.3	96.9	109	96.7	102	98.6	105	101	103	93.8	99.7	93.9	106	98.2	92.2	100	104	92.2	95.1	96.9	101
CC(C)(C)OC(=O)N[C@H]1CCCCC/C=C\[C@@H]2C[C@@]2(C(=O)NS(=O)(=O)C2CC2)NC(=O)[C@@H]2C[C@@H](OC(=O)N3Cc4cccc(F)c4C3)CN2C1=O [danoprevir]	> 10	> 10	> 10	> 10	> 10	0.3	0	0	0	0	98.1	98.5	98.4	101	83	104	101	98.9	99.4	98.2	106	98.8	98.6	103	103	109	104	94.2	92	95.1	107	103	85.1	107	102
CC(=O)[C@H]1CC[C@H]2[C@@H]3CC=C4C[C@@H](OC(=O)CCC(=O)O)CC[C@]4(C)[C@H]3CC[C@]12C [pregnenolone-succinate]	> 10	> 10	> 10	> 10	> 10	0.3	0	0	0	0	90.5	97.4	110	94.2	87.7	101	94.7	100	97.9	99.9	94.1	96.8	88.7	97.3	107	93.3	93.8	94.4	95	97	89.8	95.1	93.7	94.1	113
Cc1cc(/C=C/c2ccc3cc(N(C)C)ccc3[n+]2C)c(C)n1-c1ccccc1 [pyrvinium-pamoate]	0.834	1.15	1.56	0.745	1.16	11.1	10.6	8.4	11.9	9.9	107	93	102	46.9	13.3	107	106	103	60	3.8	106	97.4	100	78	10.6	104	110	98	42	9.6	105	101	99.3	63	9.3
CCO[C@@H]1OC(=O)C[C@@H]1NC(=O)[C@@H]1CCCN1C(=O)[C@@H](NC(=O)c1ccc(N)c(Cl)c1)C(C)(C)C [VX-765]	> 10	> 10	> 10	> 10	> 10	0.3	0	0	0.9	0	97.7	104	117	98	86	98.2	104	94.7	100	98.8	98.8	102	95.2	93.9	100	95.5	103	88.4	88.3	92.2	111	93.8	90.5	95.5	98.6
C=CC[C@]1(O)CC[C@H]2[C@@H]3CCC4=CC(=O)CCC4=C3C=C[C@@]21C [altrenogest]	> 10	> 10	> 10	> 10	> 10	0	0	0	0	0	102	98.1	99	107	96.5	92.7	97.2	96.1	97.7	104	97	97.5	93.2	89.5	104	107	95.9	93.6	90.2	101	107	88	97.6	99	105
CC(=O)NCCCS(=O)(=O)O [acamprosate]	> 10	> 10	> 10	> 10	> 10	0	0	0	0	0	109	102	101	96.3	114	95.7	99.3	99.3	102	99.2	102	99.5	106	103	103	111	98.1	94.5	90.2	110	104	102	97.9	105	103
